{
  "source": "patent EP1787679A1",
  "about": "“Use of compounds binding to the sigma receptor for the treatment of diabetes-associated pain” (LABORATORIOS DEL DR. ESTEVE, S.A., priority 2005, dated 2007)",
  "system": "STZ-induced mice",
  "assay": "von-Frey test, mechanical allodynia in streptozotocin (STZ)-induced diabetic mice",
  "type": "in vivo",
  "conditions": "paw withdrawal response to von-Frey filaments",
  "source_text": "The pancreatic β-cell cytotoxic agent STZ is widely used to induce diabetes in rodents. The glucosamine-nitrosourea compound STZ is taken up into the insulin-producing β-cells of the islets of Langerhan's via the GLUT-2 glucose transporter. The cytotoxic effect of STZ is mediated through a decrease in NAD levels, and the formation of intracellular free radicals leading to various toxic effects, including DNA-strand breaks (Schnedl et al., 1994). […] STZ-induced diabetic rodents show common features of human diabetes that include damage to the eye, kidney, blood vessels, and nervous system. Diabetic neuropathic pain occurs mainly due to the damage in the nervous system (Sima and Sugimoto, 1999).\nMethod: In the present study, diabetes is induced in mice by a single i.v. injection of STZ (200 mg/kg) as reported previously (Kamei et al., 1991; Rashid and Ueda, 2002). […] The plasma glucose level in the mice is measured in blood samples obtained from tail vein. […]\nThermal hyperalgesia and mechanical allodynia is measured at different time points (1-21 days) after STZ injection. Mechanical allodynia is measured using von-Frey filaments, a well-established method known by those skilled in the art, where the paw withdrawal response is measured. Similarly, thermal hyperalgesia is measured as the latency to paw withdrawal evoked by exposing the right hind paw to a thermal stimulus. […]",
  "data": [
    {"smiles": "CN1CCN(CCc2ccc(Cl)c(Cl)c2)CC1", "note": "[BD-1063, 1-(3,4-dichlorophenethyl)-4-methylpiperazine]", "values": [
      {"measurement": "mechanical allodynia in the von-Frey test", "value": "significantly antagonizes mechanical allodynia"}
    ]}
  ]
}
